Test results as given in patent publication US20260240869A1, “ANTIPSEUDOMONAL FUSIDIC ACID COMPOUNDS” (priority 2022, published 2026).
Values after ≈ are worked out from the molar mass of the structure shown. Read-outs that look alike come from different tables or passages of the source.

Tests used:
P. aeruginosa PAO1 [1] = assay: MIC, CLSI broth microdilution, P. aeruginosa PAO1; type: cell-based, Pseudomonas aeruginosa; details: for MIC P. aeruginosa PAO1, CAMH: CAMH (Table 10); for shift in MIC on co-treatment with 5 mM MgCl2: P. aeruginosa PAO1; for MIC: Pseudomonas aeruginosa; for MIC P. aeruginosa PAO1, 5 mM MgCl2/CAMH: co-treatment 5 mM MgCl2 in CAMH (Table 10)
Protocol: (§1) Antimicrobial Susceptibility Tests. Susceptibility testing was performed in biological triplicate, using the microdilution broth method as outlined by the Clinical and Laboratory Standards Institute. Bacteria were cultured with cation-adjusted Meuller-Hinton broth (Sigma-Aldrich; catalogue number: 90922) or Luria-Bertani (LB) broth (Lennox) in round-bottom 96-well plates (Corning; catalogue number: 3788).

P. aeruginosa PAO1 [2] = assay: NPN outer membrane permeability assay; type: cell-based, Pseudomonas aeruginosa; details: treatment for ten minutes
Description: Further, the fluorescent probe N-phenylnapthylamine (NPN) was used to assess outer membrane permeability changes upon treatment with FA, gentamicin, and FA prodrug. NPN is membrane impermeable and is only weakly fluorescent in aqueous solutions. Upon entry to the cell and interacting with phospholipids, significant fluorescence is observed. […] This residual membrane depolarizing antibacterial activity can be observed in the FA polyamine (FIG. 4a) and the diacylated compound (Table 9).

[3] = tested on: FA resistance mutants of P. aeruginosa PAO1 A6; assay: MIC in FA-resistant mutants; type: cell-based, Pseudomonas aeruginosa; details: mutants generated in PAO1 A6
Protocol: as §1
Selection ofresistant mutants. Resistant mutants were selected using the large inoculum method. […] Colonies were visible after incubating at 37° C. for 72 h.

S. aureus ATCC 29213 = assay: MIC, S. aureus ATCC 29213; type: cell-based; details: Staphylococcus aureus
Protocol: as §1

P. aeruginosa PAO1 [4] = assay: LC-MS/MS whole-cell accumulation assay, P. aeruginosa PAO1; type: cell-based, Pseudomonas aeruginosa; details: for PA Accumulation (FA): P. aeruginosa PAO1, accumulation of FA reported (Table 8)
Protocol: Accumulation Assay. The accumulation assay was performed in triplicate in batches of ten samples, with each batch containing tetracycline or ciprofloxacin as a positive control. P. aeruginosa PAO1, PAO1 A6, PA14, PA14 A40, and PA1280, and E. coli MG1655 were used in these experiments. For each replicate, 2.5 mL (E. coli) or 5 mL (P. aeruginosa) of an overnight culture was diluted into 250 mL of fresh Luria-Bertani broth (Lennox) or Tryptic Soy Broth (TSB) and grown at 37° C. with shaking to an optical density (OD600) of 0.55-0.60. The bacteria were pelleted at 3220 r.c.f. for 10 min at 4° C., and the supernatant was discarded. The pellets were resuspended in 40 mL of phosphate buffered saline (PBS) and pelleted as before, and the supernatant was discarded. The pellets were resuspended in 8.8 mL of fresh PBS and aliquoted into ten, 1.5 mL Eppendorf tubes (875 μL each). The number of colony-forming units (CFUs) was determined by a calibration curve. The samples were equilibrated at 37° C. with shaking for 5 min; compound was added (final concentration=50 μM), and then the samples were incubated at 37° C. with shaking for either 10 min. These time points were short enough to minimize metabolic and growth changes (no changes in OD600 or CFU count observed). After incubation, 800 μL of the cultures was carefully layered on 700 μL of silicone oil (9:1 AR20/Sigma High Temperature, cooled to −78° C.). Bacteria were pelleted through the oil by centrifuging at 13 000 r.c.f. for 2 min at room temperature (with the supernatant remaining above the oil); the supernatant and oil were then removed by pipetting. To lyse the samples, each pellet was dissolved in […] of water, and then, they were subjected to three (E. coli) or four (P. aeruginosa) freeze-thaw cycles of 3 min in liquid nitrogen followed by 3 min in a water bath at 65° C. P. aeruginosa samples were then treated with 50 µM DNase and RNase and incubated at 37° C. for 15 minutes. The lysates were pelleted at 13 000 r.c.f. for 2 min at room temperature, and the supernatant was collected ([…]). The debris was resuspended in 100 μL of methanol and pelleted as before. The supernatants were removed and combined with the previous supernatants collected. Finally, the remaining debris was removed by centrifuging at 20 000 r.c.f. for 10 min at room temperature. Supernatants were analyzed by LC-MS/MS.
Samples were analyzed with the 5500 QTRAP LC/MS/MS system (AB Sciex) with a 1200 series HPLC system (Agilent Technologies) including a degasser, an autosampler, and a binary pump. Liquid chromatography separation was performed on an Agilent SB-Aq column (4.6×50 mm, 5 μm) (Agilent Technologies) with mobile phase A (0.1% formic acid in water) and mobile phase B (0.1% formic acid in acetonitrile). The flow rate was 0.3 mL/min. The linear gradient was as follows: 0-3 min, 100% mobile phase A; 10-15 min, 2% mobile phase A; 15.5-21 min, 100% mobile phase A. The autosampler was set at 5° C. The injection volume was 15 μL. Mass spectra were acquired with both positive electrospray ionization at the ion spray voltage of 5500 V and negative electrospray ionization at the ion spray voltage of −4500 V. The source temperature was 450° C. The curtain gas, ion source gas 1, and ion source gas 2 were 33, 50, and 65, respectively. Multiple reaction monitoring was used to quantify the metabolites. Power analysis was not used to determine the number of replicates. Error bars represent the standard error of the mean of three biological replicates. The statistical significance of the accumulation was determined using a two sample Welch's t test (one-tailed test, assuming unequal variance) relative to the negative controls. All compounds evaluated in the biological assays were >95% pure.
MBN assay. Assays measuring permeabilization by polymyxin B nonapeptide (PMBN) were performed as above, with the addition of 8 μg/mL PMBN immediately before the compound of interest was added.

With `CC(=O)O[C@H]1C[C@@]2(C)[C@@H](C[C@@H](O)[C@H]3[C@@]4(C)CC[C@@H](O)[C@@H](C)[C@@H]4CC[C@@]32C)/C1=C(\CCC=C(C)C)C(=O)O` [FA, Fusidic acid] as the compound, how does the MIC P. aeruginosa PAO1, CAMH (P. aeruginosa PAO1 [1]) read?
The MIC P. aeruginosa PAO1, CAMH was 1020 µg/mL (≈ 1980 µM).

What about the “shift in MIC on co-treatment with 5 mM MgCl2” value (P. aeruginosa PAO1 [1]) of the same compound?
Its value is “no change in antibacterial activity”.

And the MIC (P. aeruginosa PAO1 [1]; PAO1, CLSI (Table 8), read-out: P. aeruginosa PAO1 MIC)?
Its MIC is 1020 µg/mL (≈ 1980 µM).

What about the MIC (P. aeruginosa PAO1 [1]; PAO1, Table 9, read-out: MIC P. aeruginosa PAO1) of the same compound?
Its MIC is 1020 µg/mL (≈ 1980 µM).

And the MIC (P. aeruginosa PAO1 [1]; Reference strain PAO1 (Table 11), read-out: MIC)?
Its MIC is 1020 µg/mL (≈ 1980 µM).

And the MIC (P. aeruginosa PAO1 [1]; WT P. aeruginosa PAO1, MH broth (Table 1), read-out: PAO1 MIC)?
The MIC was over 512 µg/mL.

What about the “MIC P. aeruginosa PAO1, 5 mM MgCl2/CAMH” value (P. aeruginosa PAO1 [1]) of the same compound?
The value was 1024.

What about the “PAO1 + PMBN MIC” value (P. aeruginosa PAO1 [1]; co-treatment of 8 μg/mL of PMBN, MH broth) of the same compound?
Its value is 4 µg/mL.

And the “MIC versus PAO1” value (P. aeruginosa PAO1 [1]; text b125, Chart 6)?
The value was 1024 μg/mLh.

What about the “NPN fluorescence (outer membrane permeability)” value (P. aeruginosa PAO1 [2]) of the same compound?
The value was “did not lead to any change in fluorescence”.

And the “MIC fold change in FA-resistant strains” value [3]?
Its value is 32-128 ×.

And the MIC (S. aureus ATCC 29213; ATCC29213, Table 9, read-out: MIC S. aureus ATCC 29213)?
The MIC was 0.125 µg/mL (≈ 0.242 µM).

And the “accumulation in PAO1 (in words)” value (P. aeruginosa PAO1 [4]; FIG. 1a / FIG. 5)?
The value was “does not accumulate”.

What about the “PA Accumulation (FA)” value (P. aeruginosa PAO1 [4]) of the same compound?
The value was 80 ± 7 nmol/1012 CFUs.

What about the “change of accumulation upon membrane permeabilization” value (P. aeruginosa PAO1 [4]; treatment with PMBN, FIG. 1b) of the same compound?
Its value is “significant increase in accumulation”.

For `CC(=O)O[C@H]1C[C@@]2(C)[C@@H](C[C@@H](O)[C@H]3[C@@]4(C)CC[C@@H](O)[C@@H](C)[C@@H]4CC[C@@]32C)/C1=C(\CCC=C(C)C)C(=O)O/N=C(\N)CNCCCNCCCNCCCN` [FA prodrug, (3R, 4S,5S,8S,9S,10S,11R,13R,14S,16S,Z)-17-((Z)-1,14-diamino-22-methyl-17-oxo-16-oxa-4,8,12,15-tetraazatricosa-14,21-dien-18-ylidene)-3,11-dihydroxy-4,8,10,14-tetramethylhexadecahydro-1H-cyclopenta[a]phenanthren-16-yl acetate], which MIC against P. aeruginosa PAO1 (P. aeruginosa PAO1 [1]) is on record?
The MIC against P. aeruginosa PAO1 was 4 µg/mL.

What about the “Fold change (MIC)” value (P. aeruginosa PAO1 [1]; 5 mM MgCl2/CAMH versus CAMH (Table 10)) of the same compound?
The value was 32X.

And the MIC P. aeruginosa PAO1, CAMH (P. aeruginosa PAO1 [1])?
The MIC P. aeruginosa PAO1, CAMH was 4 µg/mL.

And the “shift in MIC on co-treatment with 5 mM MgCl2” value (P. aeruginosa PAO1 [1])?
The value was 32 -fold.

And the “increase in activity relative to FA” value (P. aeruginosa PAO1 [1]; PAO1 MIC)?
The value was 256 -fold.

What about the MIC (P. aeruginosa PAO1 [1]; PAO1) of the same compound?
Its MIC is 4 µg/mL.

What about the MIC (P. aeruginosa PAO1 [1]; PAO1, read-out: MIC P. aeruginosa PAO1) of the same compound?
The MIC was 4 µg/mL.

What about the MIC (P. aeruginosa PAO1 [1]; PAO1, read-out: P. aeruginosa PAO1 MIC) of the same compound?
The MIC was 4 µg/mL.

And the “MIC P. aeruginosa PAO1, 5 mM MgCl2/CAMH” value (P. aeruginosa PAO1 [1])?
The value was 128.

And the “NPN fluorescence (outer membrane permeability)” value (P. aeruginosa PAO1 [2])?
The value was “dose-dependent increase”.

And the “MIC fold change in FA-resistant strains” value [3]?
Its value is “several fold change”.

And the MIC (S. aureus ATCC 29213; ATCC29213, read-out: MIC S. aureus ATCC 29213)?
The MIC was 1 µg/mL.

And the “PA Accumulation (FA)” value (P. aeruginosa PAO1 [4])?
The value was 3396 ± 122 nmol/1012 CFUs.
